The structures appear in SMILES notation. Active and inactive are the calls of the source.

Results on 20 compounds are retold here after ChEMBL document CHEMBL1144154, “7-[1H-Indol-2-yl]-2,3-dihydro-isoindol-1-ones as dual Aurora-A/VEGF-R2 kinase inhibitors: design, synthesis, and biological activity” (Bioorg Med Chem Lett, 2008).

The target of data set [1] is T1, Vascular endothelial growth factor receptor 2 (Homo sapiens, UniProt P35968). As to the kind of experiment: Inhibition of VEGFR2.
The target of data set [2] is T2, Cyclin-dependent kinase 1 (Homo sapiens, UniProt P06493). As to the kind of experiment: Inhibition of CDK1.
Target sequence in this assay (P06493 whole entry): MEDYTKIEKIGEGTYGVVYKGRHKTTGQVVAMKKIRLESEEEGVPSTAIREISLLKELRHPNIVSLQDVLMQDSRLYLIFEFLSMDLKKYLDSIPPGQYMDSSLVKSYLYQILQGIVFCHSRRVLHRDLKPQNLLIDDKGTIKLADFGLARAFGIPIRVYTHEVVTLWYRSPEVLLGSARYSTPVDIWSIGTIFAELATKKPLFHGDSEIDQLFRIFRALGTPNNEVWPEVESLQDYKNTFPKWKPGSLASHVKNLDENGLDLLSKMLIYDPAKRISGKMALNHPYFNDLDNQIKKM
The target in data set [3] is T3, Aurora kinase A (Homo sapiens, UniProt O14965).
T3 sequence (O14965 whole entry): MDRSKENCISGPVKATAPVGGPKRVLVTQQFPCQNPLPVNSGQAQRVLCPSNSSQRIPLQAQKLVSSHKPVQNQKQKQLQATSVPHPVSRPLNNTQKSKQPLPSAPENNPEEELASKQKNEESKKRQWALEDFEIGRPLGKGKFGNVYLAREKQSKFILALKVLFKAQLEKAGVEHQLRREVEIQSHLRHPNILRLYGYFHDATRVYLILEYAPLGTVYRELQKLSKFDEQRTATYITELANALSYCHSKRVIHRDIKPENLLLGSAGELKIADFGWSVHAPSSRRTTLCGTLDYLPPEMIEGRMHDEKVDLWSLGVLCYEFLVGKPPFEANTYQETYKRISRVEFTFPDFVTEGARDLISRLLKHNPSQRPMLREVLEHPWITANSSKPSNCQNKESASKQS
Briefly: Inhibition of Aurora A.

Data set [4] addresses T4, Aurora kinase A (Homo sapiens) (UniProt O14965).
T4 sequence (whole entry): T3 sequence (O14965 whole entry)
Briefly: Inhibition of Aurora A at 100 uM.

For data set [5], the target named is T1, Vascular endothelial growth factor receptor 2. Briefly: Inhibition of VEGFR2 at 0.1 uM.
Data set [6] shares this target. As to the kind of experiment: Inhibition of VEGFR2 at 100 uM.
Data set [7] has as its target T2, Cyclin-dependent kinase 1. Briefly: Inhibition of CDK1 at 100 uM.
Target sequence in this assay (P06493 whole entry, looked up): as the sequence (P06493 whole entry) above
Data set [8] deals with HeLa. As to the kind of experiment: Induction of polyploidy in human HeLa cells assessed as increase in cells with >4N DNA content at 2.5 uM after 72 hrs by FACS analysis.
Data set [9] deals with A-375. As to the kind of experiment: Antitumor activity in human A375 cells […] nude mouse assessed as inhibition of tumor growth at 100 mg/kg, ip relative to control. It is filed as functional. On the set-up: scale not given: the % may be the effect or the level left. The settings on record: route intraperitoneal.
Data set [10] is described as follows: Oral bioavailability in rat at 10 mg/kg. In kind it is ADME, organism-based. The settings on record: in vivo.
Data set [11] is described as follows: Cmax in rat at 10 mg/kg, po. The following applies: in vivo. It is filed as ADME, organism-based. More on the design: dose 10 mg/kg, route oral.
Data set [12] is described as follows: Drug concentration in nude mouse plasma at 10 mg/kg after 2 hrs. It is filed as ADME, organism-based. More on the design: dose 10 mg/kg.
Data set [13] in a line: Drug concentration in nude mouse plasma at 10 mg/kg after 1 hr. On the set-up: dose 10 mg/kg. It is filed as ADME, organism-based.
The nature of data set [14]: Drug concentration in nude mouse plasma at 10 mg/kg after 0.5 hrs. In kind it is ADME, organism-based. More on the design: dose 10 mg/kg.
A short description of data set [15]: Half life in rat at 10 mg/kg, po. In kind it is ADME, organism-based. More on the design: dose 10 mg/kg, route oral. The settings on record: in vivo.
The nature of data set [16]: Drug concentration in nude mouse plasma at 10 mg/kg after 4 hrs. In kind it is ADME, organism-based. On the set-up: dose 10 mg/kg.

T1 sequence (P35968 whole entry): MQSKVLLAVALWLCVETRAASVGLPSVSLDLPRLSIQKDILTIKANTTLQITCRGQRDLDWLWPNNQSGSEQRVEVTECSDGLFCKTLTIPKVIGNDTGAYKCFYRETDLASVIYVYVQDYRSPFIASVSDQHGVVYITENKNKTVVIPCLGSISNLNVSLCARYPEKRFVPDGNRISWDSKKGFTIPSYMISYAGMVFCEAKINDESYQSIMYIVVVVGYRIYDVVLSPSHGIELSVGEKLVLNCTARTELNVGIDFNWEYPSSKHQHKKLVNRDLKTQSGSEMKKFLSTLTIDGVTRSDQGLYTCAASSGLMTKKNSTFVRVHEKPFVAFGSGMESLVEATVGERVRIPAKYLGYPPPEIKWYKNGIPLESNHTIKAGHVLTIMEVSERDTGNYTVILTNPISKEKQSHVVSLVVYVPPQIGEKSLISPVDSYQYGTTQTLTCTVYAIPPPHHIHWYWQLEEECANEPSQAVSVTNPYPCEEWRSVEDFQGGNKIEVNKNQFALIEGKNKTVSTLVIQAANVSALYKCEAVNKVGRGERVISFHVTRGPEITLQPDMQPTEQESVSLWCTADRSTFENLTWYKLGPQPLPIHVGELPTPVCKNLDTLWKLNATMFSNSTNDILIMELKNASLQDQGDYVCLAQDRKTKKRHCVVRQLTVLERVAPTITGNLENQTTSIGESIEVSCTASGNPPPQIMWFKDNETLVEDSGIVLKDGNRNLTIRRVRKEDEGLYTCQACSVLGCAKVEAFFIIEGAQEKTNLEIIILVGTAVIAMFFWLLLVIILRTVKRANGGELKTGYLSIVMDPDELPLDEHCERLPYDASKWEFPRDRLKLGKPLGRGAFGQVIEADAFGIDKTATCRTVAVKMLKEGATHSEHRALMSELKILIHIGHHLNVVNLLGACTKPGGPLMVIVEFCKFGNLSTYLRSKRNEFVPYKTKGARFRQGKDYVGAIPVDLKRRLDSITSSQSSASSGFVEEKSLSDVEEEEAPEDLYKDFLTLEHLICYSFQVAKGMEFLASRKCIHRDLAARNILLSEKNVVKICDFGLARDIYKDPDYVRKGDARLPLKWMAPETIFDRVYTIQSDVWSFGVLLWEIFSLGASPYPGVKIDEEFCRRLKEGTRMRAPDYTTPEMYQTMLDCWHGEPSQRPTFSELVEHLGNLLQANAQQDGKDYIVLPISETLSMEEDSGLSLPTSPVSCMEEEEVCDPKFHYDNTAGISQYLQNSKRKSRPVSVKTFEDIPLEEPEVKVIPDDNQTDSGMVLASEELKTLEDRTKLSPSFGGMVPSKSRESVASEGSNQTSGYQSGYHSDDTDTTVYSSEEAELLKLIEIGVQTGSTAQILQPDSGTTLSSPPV

What is called IC50 is the midpoint of a concentration-inhibition curve. In the case of `CCN1CCN(CCCOc2ccc3[nH]c(-c4cccc5c4C(=O)NC5)cc3c2)CC1`, the IC50 in [1] was 14 nM; in data set [2], more than 100000 nM; in [3] it was 44 nM.
`NC(=O)c1cccc2c1C(=O)NC2`: the figures for the IC50 in [1] and in data set [3] were more than 100000 nM and 14300 nM, respectively.
In the case of `O=C1NCc2cccc(-c3cc4cc(OCCCN5CCC(O)CC5)ccc4[nH]3)c21`, the values for the IC50 in [1], in data set [2] and in data set [3] were 18 nM, more than 100000 nM and 61 nM, respectively.
In the case of `CN1Cc2cccc(-c3cccn3C(=O)OC(C)(C)C)c2C1=O`, the concentration for half-maximal inhibition (IC50) in [1], in data set [2] and in [3] was more than 100000 nM each time.
Take `O=C1NCc2cccc(-c3cc4cc(OCCN5CCOCC5)ccc4[nH]3)c21`: the IC50 in data set [1] is 74 nM; in [2], more than 100000 nM; in data set [3], 135 nM.
For `O=C1NCc2cccc(-c3cc4cc(OCc5ccccc5)ccc4[nH]3)c21`, the IC50 in [1] is 11300 nM; in data set [2], more than 100000 nM; in data set [3], 21200 nM.
One may read the inhibition as the share of the control response that was lost under treatment. `COc1ccc(NC(=O)c2cccc3c2C(=O)NC3)cc1` registered an IC50 in data set [1] of 5940 nM. This compound also yielded an inhibition in data set [4] of 45%.
With `COc1ccc2[nH]c(-c3cccc4c3C(=O)NC4=O)cc2c1`, the inhibition worked out at 35% in data set [5] and 30% in [4].
Consider `O=C1NCc2cccc(-c3cc4cc(OCCCO)ccc4[nH]3)c21`, for which the values for the IC50 in data set [1], in data set [2] and in data set [3] were 30 nM, more than 100000 nM and 100 nM, respectively.
For the compound `CN1Cc2cccc(-c3ccc[nH]3)c2C1=O`, the inhibition in data set [6] is less than 10%; in [7], 24%; in [4], 37%.
In the case of `O=C1NCc2cccc(-c3cc4ccccc4[nH]3)c21`, the IC50 is 144 nM in data set [1], more than 100000 nM in [2] and 100 nM in data set [3].
`CC(C)(C)OC(=O)n1cccc1-c1cccc2c1C(=O)NC2`: the inhibition was 46% in [6], less than 10% in data set [7] and 25% in [4].
For `O=C1NCc2cccc(-c3cc4cc(O)ccc4[nH]3)c21`, the 50% inhibitory concentration (IC50) in data set [1] amounted to 119 nM; in data set [2], 13300 nM; in [3], 90 nM.
The term bioavailability denotes dose-corrected exposure relative to a reference, in per cent. The term Cmax denotes the highest concentration seen after dosing. In general, half-life refers to the time needed for the level to fall by half in the phase considered. On to `O=C1NCc2cccc(-c3cc4cc(OCCN5CCCCC5)ccc4[nH]3)c21`, for which the IC50 in [1] is 56 nM; in data set [2] it was more than 100000 nM; in data set [3], 200 nM. Besides, the result in [8] was Active. Moreover, the Activity in data set [9] was 46%. The bioavailability in data set [10] stood at 20%. Besides, the highest level in data set [11] (Cmax) was 391 ng/mL. In data set [12], this compound returned a concentration at 2 h of 41 ng/mL. The concentration at 1 h in data set [13] was found to be 160 ng/mL. This compound returned a concentration at 0.5 h in data set [14] of 154 ng/mL. This compound showed a half-life in data set [15] of 54 min. For the same compound, the concentration at 4 h in data set [16] is 12 ng/mL.
As for `COC(=O)c1cccc2c1C(=O)NC2`, the IC50 in [1] and in data set [3] was more than 100000 nM in each case.
On to `O=C1NCc2cccc(-c3cc4cc(OCCCN5CCCCC5)ccc4[nH]3)c21`, for which the values for the concentration for half-maximal inhibition (IC50) in data set [1], in [2] and in [3] were 65 nM, more than 100000 nM and 179 nM, respectively.
Consider `O=C1NCc2cccc(-c3c[nH]c4ccccc34)c21`, for which the inhibition in data set [6] came out at 50%; in [4], 60%.
Regarding `O=C1NCc2cccc(-c3ccc[nH]3)c21`, the IC50 was found to be 1100 nM in [1] and 338 nM in data set [3]. Further, the inhibition in data set [7] worked out at 63%.
In the case of `COc1ccc2[nH]c(-c3cccc4c3C(=O)NC4)nc2c1`, the IC50 in data set [1] amounted to 142 nM; in [3] it was 205 nM.
For `O=C(O)c1cccc2c1C(=O)NC2`, the IC50 in data set [1] and in data set [3] was more than 100000 nM in each case.
